Patent US20060235076A1, “Medicinal composition for treating infection with drug-resistant staphylococcus aureus” (priority 2003, published 2006)
In brackets after ≈: the same amount, converted by molar mass. Read-outs that look alike come from different tables or passages of the source.

How the values were obtained:
Format in all cases: cell-based, Staphylococcus aureus
[1] = test system: MRSA and MSSA; assay: Enhancing activity for the antibacterial activity of oxacillin by various gallates (agar plate dilution method, oxacillin MIC); conditions: MRSA and MSSA
Protocol: (§1) According to the agar plate dilution method defined by Japan Society of Chemotherapy, MIC (Minimum inhibitory concentration) was determined. CAMHA was prepared by adding 50 mg/l of Ca-ion, 25 mg/l of Mg-ion, and 2% of NaCl to Mueller-Hinton II Agar (MHA), and it was used as a medium for use in the measurement of sensitivity. The bacterial liquid was incubated at 37° C. overnight and diluted to 10^6 CFU/ml with saline.

[2] = test system: MRSA and MSSA; assay: Antibacterial activity of gallic acid, various gallates and multivalent phenol derivatives alone (agar plate dilution method, MIC); conditions: Staphylococcus aureus
Summary of the method: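 Each compound tested alone. Bacteria cultured overnight at 37 °C, then brought to 10^6 CFU/ml in saline and tested on MHA II with added Ca-ion (50 mg/l), Mg-ion (25 mg/l) and 2% NaCl. MIC read by the Japan Society of Chemotherapy agar dilution method.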

[3] = test system: MRSA; assay: Potentiating effect of isoamyl gallate for the antibacterial activity of other β-lactams (agar plate dilution method, MIC)
Protocol: as §1

[4] = test system: MRSA COL and MRSA Strain No. 5; assay: Potentiating effect of various gallates for antibacterial activity of oxacillin (MIC by broth microdilution method and FIC); conditions: for FIC value: combination with oxacillin
Summary of the method: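 Broth microdilution MIC per Japan Society of Chemotherapy method in cation-adjusted Mueller-Hinton broth (50 mg/l Ca, 25 mg/l Mg, 2% NaCl); inoculum 5×10^5 CFU/well from overnight 37° C culture. Gallate–oxacillin combinations evaluated by FIC.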

[5] = COL, compound alone, read-out: MIC
[6] = MRSA #1, compound alone, read-out: MIC
[7] = MRSA #2, compound alone, read-out: MIC
[8] = MRSA #3, compound alone, read-out: MIC
[9] = MRSA #4, compound alone, read-out: MIC
[10] = MRSA #5, compound alone, read-out: MIC
[11] = MRSA #6, compound alone, read-out: MIC
[12] = MRSA #7, compound alone, read-out: MIC
[13] = MRSA #8, compound alone, read-out: MIC
[14] = MRSA #9, compound alone, read-out: MIC
[15] = MRSA #10, compound alone, read-out: MIC
[16] = MRSA #12, compound alone, read-out: MIC
[17] = MRSA #16, compound alone, read-out: MIC
[18] = MRSA #17, compound alone, read-out: MIC
[19] = MRSA #18, compound alone, read-out: MIC
[20] = MRSA #20, compound alone, read-out: MIC
[21] = MRSA #21, compound alone, read-out: MIC
[22] = MRSA #22, compound alone, read-out: MIC
[23] = MRSA #24, compound alone, read-out: MIC
[24] = MSSA #1003, compound alone, read-out: MIC
[25] = MSSA #1010, compound alone, read-out: MIC
[26] = MSSA #1020, compound alone, read-out: MIC
[27] = MSSA #1023, compound alone, read-out: MIC
[28] = MSSA #1029, compound alone, read-out: MIC
[29] = MSSA #1032, compound alone, read-out: MIC
[30] = RN4220, with isoamyl gallate 25 mg/ml

CC(C)CCOC(=O)c1cc(O)c(O)c(O)c1 [isoAmyl gallate, Isoamyl gallate]
effect of combination use with oxacillin (words) [1]: potent effects of the combination use | MIC50 [2]: 62.5 mg/L (≈ 260 µM) | MIC ([2]; ATCC 6538 / MRSA / MSSA): 62.5 mg/L (≈ 260 µM) | MIC [2, 5]: 62.5 mg/L (≈ 260 µM) | MIC [2, 6]: 62.5 mg/L (≈ 260 µM) | MIC [2, 7]: 62.5 mg/L (≈ 260 µM) | MIC [2, 8]: 62.5 mg/L (≈ 260 µM) | MIC [2, 9]: 62.5 mg/L (≈ 260 µM) | MIC [2, 10]: 62.5 mg/L (≈ 260 µM) | MIC [2, 11]: 62.5 mg/L (≈ 260 µM) | MIC [2, 12]: 62.5 mg/L (≈ 260 µM) | MIC [2, 13]: 62.5 mg/L (≈ 260 µM) | MIC [2, 14]: 62.5 mg/L (≈ 260 µM) | MIC [2, 15]: 31.3 mg/L (≈ 130 µM) | MIC [2, 16]: 62.5 mg/L (≈ 260 µM) | MIC [2, 17]: 62.5 mg/L (≈ 260 µM) | MIC [2, 18]: 62.5 mg/L (≈ 260 µM) | MIC [2, 19]: 62.5 mg/L (≈ 260 µM) | MIC [2, 20]: 62.5 mg/L (≈ 260 µM) | MIC [2, 21]: 62.5 mg/L (≈ 260 µM) | MIC [2, 22]: 125 mg/L (≈ 520 µM) | MIC [2, 23]: 125 mg/L (≈ 520 µM) | MIC [2, 24]: 125 mg/L (≈ 520 µM) | MIC [2, 25]: 62.5 mg/L (≈ 260 µM) | MIC [2, 26]: 62.5 mg/L (≈ 260 µM) | MIC [2, 27]: 62.5 mg/L (≈ 260 µM) | MIC [2, 28]: 62.5 mg/L (≈ 260 µM) | MIC [2, 29]: 62.5 mg/L (≈ 260 µM) | Ampicillin MIC [3, 30]: 63 mg/L | Cefapirin MIC [3, 30]: 63 mg/L | effects of the combination use with other β-lactams ([3]; with penicillin G, cefoxitin, ampicillin, and cefapirin): excellent effects of the combination use | FIC value ([4]; MRSA COL): 0.25 | FIC value ([4]; MRSA Strain No. 5): 0.313

CC(C)COC(=O)c1cc(O)c(O)c(O)c1 [isoButyl gallate, isobutyl gallate]
effect of combination use with oxacillin (words) [1]: potent effects of the combination use | MIC50 [2]: 125 mg/L (≈ 553 µM) | MIC ([2]; ATCC 6538 / MRSA / MSSA): 125 mg/L (≈ 553 µM) | MIC [2, 5]: 125 mg/L (≈ 553 µM) | MIC [2, 6]: 125 mg/L (≈ 553 µM) | MIC [2, 7]: 62.5 mg/L (≈ 276 µM) | MIC [2, 8]: 125 mg/L (≈ 553 µM) | MIC [2, 9]: 125 mg/L (≈ 553 µM) | MIC [2, 10]: 125 mg/L (≈ 553 µM) | MIC [2, 11]: 62.5 mg/L (≈ 276 µM) | MIC [2, 12]: 125 mg/L (≈ 553 µM) | MIC [2, 13]: 125 mg/L (≈ 553 µM) | MIC [2, 14]: 62.5 mg/L (≈ 276 µM) | MIC [2, 15]: 62.5 mg/L (≈ 276 µM) | MIC [2, 16]: 125 mg/L (≈ 553 µM) | MIC [2, 17]: 125 mg/L (≈ 553 µM) | MIC [2, 18]: 125 mg/L (≈ 553 µM) | MIC [2, 19]: 125 mg/L (≈ 553 µM) | MIC [2, 20]: 125 mg/L (≈ 553 µM) | MIC [2, 21]: 125 mg/L (≈ 553 µM) | MIC [2, 22]: 125 mg/L (≈ 553 µM) | MIC [2, 23]: 125 mg/L (≈ 553 µM) | MIC [2, 24]: 125 mg/L (≈ 553 µM) | MIC [2, 25]: 125 mg/L (≈ 553 µM) | MIC [2, 26]: 125 mg/L (≈ 553 µM) | MIC [2, 27]: 125 mg/L (≈ 553 µM) | MIC [2, 28]: 62.5 mg/L (≈ 276 µM) | MIC [2, 29]: 125 mg/L (≈ 553 µM) | effect of the combination use with oxacillin by FIC values ([4]; COL Strain and Strain No. 5): most potent effect of the combination use | FIC value ([4]; MRSA COL): 0.129 | FIC value ([4]; MRSA Strain No. 5): 0.266
